Assays:
Assay in all cases: viability relative to DMSO control (fraction); higher = less drug effect (more viable cells)
Conditions in all cases: 48 h
[1] = tested on: primary AML patient cells (S006)
Outline: (§1)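 Viability was quantified by CellTiter-Glo luminescence and related to the median of 16 inner DMSO wells. Before that, primary mononuclear tumour cells, fresh or cryopreserved and Ficoll-isolated from blood or bone marrow or prepared from processed lymph node, were plated at 4 × 10^4 cells per well in 384-well plates containing pre-plated compounds at five concentrations, one well each. Plates were incubated in RPMI-1640 with penicillin/streptomycin, L-glutamine and human serum at 37 °C and 5% CO2 for 48 h.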

[2] = tested on: primary AML patient cells (S089)
Outline: as §1

[3] = tested on: primary AML patient cells (S021)
Outline: as §1

[4] = tested on: primary AML patient cells (S037)
Outline: as §1

[5] = tested on: primary AML patient cells (S081)
Outline: as §1

[6] = tested on: primary AML patient cells (S011)
Outline: as §1

[7] = tested on: primary AML patient cells (S019)
Outline: as §1

[8] = tested on: primary AML patient cells (S017)
Outline: as §1

[9] = tested on: primary AML patient cells (S012)
Outline: as §1

[10] = tested on: primary AML patient cells (S085)
Outline: as §1

[11] = tested on: primary AML patient cells (S025)
Outline: as §1

[12] = tested on: primary AML patient cells (S091)
Outline: as §1

[13] = tested on: primary AML patient cells (S002)
Outline: as §1

[14] = tested on: primary CLL patient cells (S043)
Outline: as §1

N#Cc1ccnc(N2C(=O)CC[C@H]2C(=O)N(c2cncc(F)c2)[C@H](C(=O)NC2CC(F)(F)C2)c2ccccc2Cl)c1 [AG-120]
viability ([1]; 0.024 µM): 1.07 | viability ([1]; 0.12 µM): 1.13 | viability ([1]; 0.6 µM): 0.986 | viability ([1]; 3 µM): 1.08 | viability ([1]; 15 µM): 0.901 | viability ([2]; 0.024 µM): 0.664 | viability ([2]; 0.12 µM): 0.916 | viability ([2]; 0.6 µM): 0.818 | viability ([2]; 3 µM): 0.903 | viability ([2]; 15 µM): 0.827 | viability ([3]; 0.024 µM): 0.985 | viability ([3]; 0.12 µM): 0.875 | viability ([3]; 0.6 µM): 0.743 | viability ([3]; 3 µM): 0.761 | viability ([3]; 15 µM): 0.692 | viability ([4]; 0.024 µM): 1.04 | viability ([4]; 0.12 µM): 1.04 | viability ([4]; 0.6 µM): 0.952 | viability ([4]; 3 µM): 1.01 | viability ([4]; 15 µM): 0.888 | viability ([5]; 0.024 µM): 0.994 | viability ([5]; 0.12 µM): 1.01 | viability ([5]; 0.6 µM): 0.925 | viability ([5]; 3 µM): 1.11 | viability ([5]; 15 µM): 0.968 | viability ([6]; 0.024 µM): 1.76 | viability ([6]; 0.12 µM): 0.843 | viability ([6]; 0.6 µM): 0.852 | viability ([6]; 3 µM): 0.785 | viability ([6]; 15 µM): 0.657 | viability ([7]; 0.024 µM): 1.43 | viability ([7]; 0.12 µM): 1.43 | viability ([7]; 0.6 µM): 0.934 | viability ([7]; 3 µM): 1.34 | viability ([7]; 15 µM): 0.833 | viability ([8]; 0.024 µM): 1.04 | viability ([8]; 0.12 µM): 0.988 | viability ([8]; 0.6 µM): 1.16 | viability ([8]; 3 µM): 1.02 | viability ([8]; 15 µM): 0.908 | viability ([9]; 0.024 µM): 1.03 | viability ([9]; 0.12 µM): 1.06 | viability ([9]; 0.6 µM): 1.04 | viability ([9]; 3 µM): 0.987 | viability ([9]; 15 µM): 0.985 | viability ([10]; 0.024 µM): 1.07 | viability ([10]; 0.12 µM): 1 | viability ([10]; 0.6 µM): 0.959 | viability ([10]; 3 µM): 1.03 | viability ([10]; 15 µM): 0.886 | viability ([11]; 0.024 µM): 1.04 | viability ([11]; 0.12 µM): 1.06 | viability ([11]; 0.6 µM): 0.85 | viability ([11]; 3 µM): 0.934 | viability ([11]; 15 µM): 0.826 | viability ([12]; 0.024 µM): 1.02 | viability ([12]; 0.12 µM): 0.975 | viability ([12]; 0.6 µM): 1.03 | viability ([12]; 3 µM): 1.56 | viability ([12]; 15 µM): 1.03 | viability ([13]; 0.024 µM): 0.901 | viability ([13]; 0.12 µM): 0.897 | viability ([13]; 0.6 µM): 0.849 | viability ([13]; 3 µM): 0.951 | viability ([13]; 15 µM): 0.766 | viability ([14]; 0.024 µM): 0.819 | viability ([14]; 0.12 µM): 0.925 | viability ([14]; 0.6 µM): 0.925 | viability ([14]; 3 µM): 0.91 | viability ([14]; 15 µM): 0.837

Reference: the supplement of paper PMC10733146
